Laboratory results from publication PMC12892976, “Alkylation-based optimization of antifungal FPPS inhibitors yields a potent, broad-spectrum lipophilic zoledronate derivative” (mBio, 2025).
Like-named read-outs stand apart in the source and are kept apart here.

Columns and labels:
Aspergillus fumigatus [1] = experiment: MIC/MFC broth microdilution (CLSI); details: ATCC204305
Procedure: (§1) Antifungal susceptibility was determined by broth microdilution according to the CLSI guidelines described in M27-Ed4 ([16]). […] MFC was determined by back-plating drug-treated cultures from MIC broths onto SDA plates. The MFC was defined as the lowest concentration from which no colonies could be cultured.

eight fungal species [2] = experiment: checkerboard interaction with azoles, summary across the eight species; assay type: cell-based; details: geometric mean MIC in combination with azoles
Source text: Synergy between lipophilic FPPS inhibitors and azole antifungals was investigated by determining the fractional inhibitory concentration index (FICI) (Fig. 2; Table S1 Fig. S1) ([17]). […]. Derivatives PLA9 and 11, and PDA9, 11, and 12 antagonized azoles in C. albicans, C. neoformans, and C. deuterogattii, yet were largely synergistic in C. glabrata and S. cerevisiae. […].

Saccharomyces cerevisiae [3] = experiment: checkerboard drug interaction (FICI, MICc);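 on all read-outs here: simplified diagonal checkerboard screen pairing antifungals with FPPS inhibitors, FICI calculated under the Loewe additivity model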; assay type: cell-based; set-up: INH MICc / INH MICc (ITR:INH) / INH MICc (KET:INH) / INH MICc (FLC:INH): unit not given beside the values; details: S. cerevisiae; for INH FD (MIC-MICc fold decrease): fold decrease of inhibitor MIC
Saccharomyces cerevisiae [4] = experiment: MIC/MFC broth microdilution (CLSI); assay type: cell-based; details: Saccharomyces cerevisiae S288c
Procedure: as §1

Aspergillus fumigatus [5] = experiment: checkerboard drug interaction (FICI, MICc);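 on all read-outs here: simplified diagonal checkerboard screen pairing antifungals with FPPS inhibitors against Aspergillus fumigatus, with FICI calculated under the Loewe additivity model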; assay type: cell-based; details: A. fumigatus; for INH FD (MIC-MICc fold decrease): fold decrease of inhibitor MIC
Procedure: (§2) Drug interactions between antifungals and FPPS inhibitors were investigated using a simplified checkerboard diagonal screening method ([45]). […] FICIs were determined according to the Loewe additivity model ([17]).

Trichophyton rubrum [6] = experiment: MIC/MFC broth microdilution (CLSI); details: Trichophyton rubrum
Procedure: as §1

Cryptococcus neoformans [7] = experiment: MIC/MFC broth microdilution (CLSI); details: Cryptococcus neoformans;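 further: susceptibility testing followed the CLSI M27-Ed4 broth microdilution document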
Procedure: as §1

Trichophyton rubrum [8] = experiment: checkerboard drug interaction (FICI, MICc);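 further: simplified diagonal checkerboard screen pairing azole antifungals with FPPS inhibitors, FICI calculated under the Loewe additivity model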; assay type: cell-based; details: T. rubrum
Procedure: as §2

Candida glabrata [9] = experiment: checkerboard drug interaction (FICI, MICc);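 on all read-outs here: simplified diagonal checkerboard screen pairing antifungals with FPPS inhibitors, FICI calculated under the Loewe additivity model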; assay type: cell-based; details: C. glabrata; for INH FD (MIC-MICc fold decrease): fold decrease of inhibitor MIC
Procedure: as §2

Candida glabrata [10] = experiment: MIC/MFC broth microdilution (CLSI); details: Nakaseomyces glabratus, CBS138;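 further: broth microdilution following CLSI M27-Ed4, MFC taken as the lowest drug level yielding no growth once MIC wells were subcultured on SDA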
Procedure: as §1

[11] = test system: Cryptococcus deuterogattii; experiment: checkerboard drug interaction (FICI, MICc);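 on all read-outs here: simplified diagonal checkerboard screen pairing antifungal drugs with FPPS inhibitors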; assay type: cell-based; details: C. deuterogattii; for INH FD (MIC-MICc fold decrease): fold decrease of inhibitor MIC
Procedure: as §2

Candida albicans [12] = experiment: MIC/MFC broth microdilution (CLSI); assay type: cell-based; details: Candida albicans SC5314
Procedure: as §1

Aspergillus flavus [13] = experiment: MIC/MFC broth microdilution (CLSI); details: ATCC204304
Procedure: as §1

HEK-293T cells = experiment: MTT reduction cytotoxicity assay; assay type: cell-based; details: Homo sapiens, HEK-293T, 72 h, HEK-293T, MTT, 72 h; read-out: HEK IC50
Aspergillus flavus [14] = experiment: checkerboard drug interaction (FICI, MICc);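 further: simplified diagonal checkerboard screen pairing azole antifungals with FPPS inhibitors, FICI calculated under the Loewe additivity model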; assay type: cell-based; set-up: INH MICc (KET:INH) / INH MICc (FLC:INH): unit not given beside the values; details: A. flavus
eight fungal species [15] = experiment: MIC/MFC summary across the eight fungal species of Table 1; assay type: cell-based
Procedure: The antifungal activity of these compounds was evaluated according to CLSI guidelines ([16]).

[16] = test system: Cryptococcus deuterogattii; experiment: MIC/MFC broth microdilution (CLSI); details: Cryptococcus deuterogattii;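 further: broth microdilution per CLSI M27-Ed4. MFC is the lowest concentration yielding no colonies when MIC broths are subcultured onto SDA plates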
Procedure: as §1

Cryptococcus neoformans [17] = experiment: checkerboard drug interaction (FICI, MICc);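 on all read-outs here: antifungal plus FPPS inhibitor pairs tested against Cryptococcus neoformans by simplified diagonal checkerboard screening, FICI computed under the Loewe additivity model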; assay type: cell-based; details: C. neoformans; for INH FD (MIC-MICc fold decrease): fold decrease of inhibitor MIC
Procedure: as §2

Candida albicans [18] = experiment: checkerboard drug interaction (FICI, MICc);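 on all read-outs here: antifungal plus FPPS inhibitor combinations on Candida albicans tested by a simplified diagonal checkerboard screen, with FICI calculated under the Loewe additivity model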; assay type: cell-based; details: C. albicans; for INH FD (MIC-MICc fold decrease): fold decrease of inhibitor MIC
Procedure: as §2

[19] = FLC:INH combination, MIC of FLC in combination with the inhibitor
[20] = FLC:INH combination, MIC of the inhibitor in combination with FLC
[21] = FLC:INH combination, fold decrease of FLC MIC
[22] = ITR:INH combination, MIC of ITR in combination with the inhibitor
[23] = ITR:INH combination, MIC of the inhibitor in combination with ITR
[24] = ITR:INH combination, fold decrease of ITR MIC
[25] = KET:INH combination, MIC of KET in combination with the inhibitor
[26] = KET:INH combination, MIC of the inhibitor in combination with KET
[27] = KET:INH combination, fold decrease of KET MIC
[28] = Fractional Inhibitory Concentration Index, fluconazole + inhibitor
[29] = Fractional Inhibitory Concentration Index, itraconazole + inhibitor
[30] = Fractional Inhibitory Concentration Index, ketoconazole + inhibitor
[31] = MIC of the inhibitor in combination with fluconazole
[32] = MIC of the inhibitor in combination with itraconazole
[33] = MIC of the inhibitor in combination with ketoconazole
[34] = MIC-MICc fold decrease of fluconazole, negative = increase
[35] = MIC-MICc fold decrease of itraconazole, negative = increase
[36] = MIC-MICc fold decrease of ketoconazole, negative = increase
[37] = MIC-MICc fold decrease of the inhibitor, with fluconazole
[38] = MIC-MICc fold decrease of the inhibitor, with itraconazole
[39] = MIC-MICc fold decrease of the inhibitor, with ketoconazole

CCCCCCCCCN1CCC[C@H]1C(=O)N[C@@H](CC(=O)O)C(=O)O [PLA9]
MFC (Aspergillus fumigatus [1]): > 128 µg/mL | MIC (Aspergillus fumigatus [1]): > 128 µg/mL | GM fungal MICc (eight fungal species [2]): 53.8 | FICI (Saccharomyces cerevisiae [3]; FLC:INH combination): 0.31 | FLC MICc (Saccharomyces cerevisiae [3]; [19]): 1 | INH MICc (Saccharomyces cerevisiae [3]; [20]): 16 | FLC FD (MIC-MICc fold decrease) (Saccharomyces cerevisiae [3]; [21]): 4 | INH FD (MIC-MICc fold decrease) (Saccharomyces cerevisiae [3]; FLC:INH combination): 16 | FICI (Saccharomyces cerevisiae [3]; ITR:INH combination): 0.5 | ITR MICc (Saccharomyces cerevisiae [3]; [22]): 0.063 | INH MICc (Saccharomyces cerevisiae [3]; [23]): 64 | ITR FD (MIC-MICc fold decrease) (Saccharomyces cerevisiae [3]; [24]): 4 | INH FD (MIC-MICc fold decrease) (Saccharomyces cerevisiae [3]; ITR:INH combination): 4 | FICI (Saccharomyces cerevisiae [3]; KET:INH combination): 0.19 | KET MICc (Saccharomyces cerevisiae [3]; [25]): 0.25 | INH MICc (Saccharomyces cerevisiae [3]; [26]): 16 | KET FD (MIC-MICc fold decrease) (Saccharomyces cerevisiae [3]; [27]): 8 | INH FD (MIC-MICc fold decrease) (Saccharomyces cerevisiae [3]; KET:INH combination): 16 | MFC (Saccharomyces cerevisiae [4]): > 128 µg/mL | MIC (Saccharomyces cerevisiae [4]): > 128 µg/mL | FICI (Aspergillus fumigatus [5]; FLC:INH combination): 2 | FLC MICc (Aspergillus fumigatus [5]; [19]): 128 | INH MICc (Aspergillus fumigatus [5]; [20]): 256 | FLC FD (MIC-MICc fold decrease) (Aspergillus fumigatus [5]; [21]): 1 | INH FD (MIC-MICc fold decrease) (Aspergillus fumigatus [5]; FLC:INH combination): 1 | FICI (Aspergillus fumigatus [5]; ITR:INH combination): 0.51 | ITR MICc (Aspergillus fumigatus [5]; [22]): 0.063 | INH MICc (Aspergillus fumigatus [5]; [23]): 2 | ITR FD (MIC-MICc fold decrease) (Aspergillus fumigatus [5]; [24]): 2 | INH FD (MIC-MICc fold decrease) (Aspergillus fumigatus [5]; ITR:INH combination): 128 | FICI (Aspergillus fumigatus [5]; KET:INH combination): 1.5 | KET MICc (Aspergillus fumigatus [5]; [25]): 4 | INH MICc (Aspergillus fumigatus [5]; [26]): 128 | KET FD (MIC-MICc fold decrease) (Aspergillus fumigatus [5]; [27]): 1 | INH FD (MIC-MICc fold decrease) (Aspergillus fumigatus [5]; KET:INH combination): 2 | MFC (Trichophyton rubrum [6]): > 128 µg/mL | MIC (Trichophyton rubrum [6]): > 128 µg/mL | MFC (Cryptococcus neoformans [7]): > 128 µg/mL | MIC (Cryptococcus neoformans [7]): > 128 µg/mL | FICI (FLC:INH) (Trichophyton rubrum [8]; [28]): 3 | FICI (ITR:INH) (Trichophyton rubrum [8]; [29]): 2 | FICI (KET:INH) (Trichophyton rubrum [8]; [30]): 1.5 | INH MICc (FLC:INH) (Trichophyton rubrum [8]; [31]): 256 | INH MICc (ITR:INH) (Trichophyton rubrum [8]; [32]): 256 | INH MICc (KET:INH) (Trichophyton rubrum [8]; [33]): 128 | FLC FD (FLC:INH) (Trichophyton rubrum [8]; [34]): -2 | ITR FD (ITR:INH) (Trichophyton rubrum [8]; [35]): 1 | KET FD (KET:INH) (Trichophyton rubrum [8]; [36]): 1 | INH FD (FLC:INH) (Trichophyton rubrum [8]; [37]): 1 | INH FD (ITR:INH) (Trichophyton rubrum [8]; [38]): 1 | INH FD (KET:INH) (Trichophyton rubrum [8]; [39]): 2 | FICI (Candida glabrata [9]; FLC:INH combination): 0.31 | INH MICc (Candida glabrata [9]; [20]): 4 | FLC FD (MIC-MICc fold decrease) (Candida glabrata [9]; [21]): 4 | INH FD (MIC-MICc fold decrease) (Candida glabrata [9]; FLC:INH combination): 64 | FICI (Candida glabrata [9]; ITR:INH combination): 0.28 | INH MICc (Candida glabrata [9]; [23]): 2 | ITR FD (MIC-MICc fold decrease) (Candida glabrata [9]; [24]): 4 | INH FD (MIC-MICc fold decrease) (Candida glabrata [9]; ITR:INH combination): 128 | FICI (Candida glabrata [9]; KET:INH combination): 0.28 | INH MICc (Candida glabrata [9]; [26]): 2 | KET FD (MIC-MICc fold decrease) (Candida glabrata [9]; [27]): 4 | INH FD (MIC-MICc fold decrease) (Candida glabrata [9]; KET:INH combination): 128 | MFC (Candida glabrata [10]): > 128 µg/mL | MIC (Candida glabrata [10]): > 128 µg/mL | FICI ([11]; FLC:INH combination): ≥4 | INH MICc [11, 20]: 256 | FLC FD (MIC-MICc fold decrease) [11, 21]: -4 | INH FD (MIC-MICc fold decrease) ([11]; FLC:INH combination): 1 | FICI ([11]; ITR:INH combination): ≥4 | INH MICc [11, 23]: 256 | ITR FD (MIC-MICc fold decrease) [11, 24]: < -4 | INH FD (MIC-MICc fold decrease) ([11]; ITR:INH combination): 1 | FICI ([11]; KET:INH combination): 1 | INH MICc [11, 26]: 128 | KET FD (MIC-MICc fold decrease) [11, 27]: 2 | INH FD (MIC-MICc fold decrease) ([11]; KET:INH combination): 2 | MFC (Candida albicans [12]): > 128 µg/mL | MIC (Candida albicans [12]): > 128 µg/mL | MFC (Aspergillus flavus [13]): > 128 µg/mL | MIC (Aspergillus flavus [13]): > 128 µg/mL | IC50 (HEK-293T cells): > 256 µg/mL | FICI (FLC:INH) (Aspergillus flavus [14]; [28]): 2 | FICI (ITR:INH) (Aspergillus flavus [14]; [29]): 1.5 | FICI (KET:INH) (Aspergillus flavus [14]; [30]): 1 | INH MICc (FLC:INH) (Aspergillus flavus [14]; [31]): 256 | INH MICc (ITR:INH) (Aspergillus flavus [14]; [32]): 128 | INH MICc (KET:INH) (Aspergillus flavus [14]; [33]): 128 | FLC FD (FLC:INH) (Aspergillus flavus [14]; [34]): 1 | ITR FD (ITR:INH) (Aspergillus flavus [14]; [35]): 1 | KET FD (KET:INH) (Aspergillus flavus [14]; [36]): 2 | INH FD (FLC:INH) (Aspergillus flavus [14]; [37]): 1 | INH FD (ITR:INH) (Aspergillus flavus [14]; [38]): 2 | INH FD (KET:INH) (Aspergillus flavus [14]; [39]): 2 | MFC (eight fungal species [15]; across eight species, read-out: Geometric mean MFC): > 128 µg/mL | MIC (eight fungal species [15]; geometric mean across eight species, read-out: GM fungal MIC): > 128 µg/mL | MIC (eight fungal species [15]; read-out: Geometric mean MIC): > 128 µg/mL | MFC [16]: > 128 µg/mL | MIC [16]: > 128 µg/mL | FICI (Cryptococcus neoformans [17]; FLC:INH combination): ≥4 | INH MICc (Cryptococcus neoformans [17]; [20]): 256 | FLC FD (MIC-MICc fold decrease) (Cryptococcus neoformans [17]; [21]): < -4 | INH FD (MIC-MICc fold decrease) (Cryptococcus neoformans [17]; FLC:INH combination): 1 | FICI (Cryptococcus neoformans [17]; ITR:INH combination): ≥4 | INH MICc (Cryptococcus neoformans [17]; [23]): 128 | ITR FD (MIC-MICc fold decrease) (Cryptococcus neoformans [17]; [24]): -4 | INH FD (MIC-MICc fold decrease) (Cryptococcus neoformans [17]; ITR:INH combination): 2 | FICI (Cryptococcus neoformans [17]; KET:INH combination): ≥4 | INH MICc (Cryptococcus neoformans [17]; [26]): 128 | KET FD (MIC-MICc fold decrease) (Cryptococcus neoformans [17]; [27]): -4 | INH FD (MIC-MICc fold decrease) (Cryptococcus neoformans [17]; KET:INH combination): 2 | FICI (Candida albicans [18]; FLC:INH combination): ≥4 | INH MICc (Candida albicans [18]; [20]): 64 | FLC FD (MIC-MICc fold decrease) (Candida albicans [18]; [21]): < -4 | INH FD (MIC-MICc fold decrease) (Candida albicans [18]; FLC:INH combination): 4 | FICI (Candida albicans [18]; ITR:INH combination): 0.52 | INH MICc (Candida albicans [18]; [23]): 4 | ITR FD (MIC-MICc fold decrease) (Candida albicans [18]; [24]): 2 | INH FD (MIC-MICc fold decrease) (Candida albicans [18]; ITR:INH combination): 64 | FICI (Candida albicans [18]; KET:INH combination): ≥4 | INH MICc (Candida albicans [18]; [26]): 64 | KET FD (MIC-MICc fold decrease) (Candida albicans [18]; [27]): < -4 | INH FD (MIC-MICc fold decrease) (Candida albicans [18]; KET:INH combination): 4
